# According to patent publication US20240285557A1, “PHARMACEUTICAL COMPOSITION COMPRISING LIPASE INHIBITOR FOR TREATMENT OR TREATMENT OF RNA VIRAL INFECTIONS” (priority 2021, published 2024):
# System: SARS-COV-2 KCDC03 strain (A lineage), KDCA51463 strain (Alpha lineage), and KDCA55905 strain (Beta lineage)
# Format: in vivo, Golden Syrian hamsters
# Settings: 40 mg kg^−1 day^−1 lipase inhibitor, 2.5 mg/kg/day remdesivir
smiles,measurement,value
CCN(CC)C(=O)Nc1cccc(-c2ccc(N(C)C)cc2)c1 [DABPU-DE],"pneumonia severity (and weight loss), comparison between treatment groups",more improvement
